# Literature values, collected in article PMC7700871 (ACS chemical biology, 2020).
# Target: Abl-1 (Homo sapiens, UniProt P00519)
# Settings: cited from earlier work
# Sequence of Abl-1 (P00519 whole entry, species assumed): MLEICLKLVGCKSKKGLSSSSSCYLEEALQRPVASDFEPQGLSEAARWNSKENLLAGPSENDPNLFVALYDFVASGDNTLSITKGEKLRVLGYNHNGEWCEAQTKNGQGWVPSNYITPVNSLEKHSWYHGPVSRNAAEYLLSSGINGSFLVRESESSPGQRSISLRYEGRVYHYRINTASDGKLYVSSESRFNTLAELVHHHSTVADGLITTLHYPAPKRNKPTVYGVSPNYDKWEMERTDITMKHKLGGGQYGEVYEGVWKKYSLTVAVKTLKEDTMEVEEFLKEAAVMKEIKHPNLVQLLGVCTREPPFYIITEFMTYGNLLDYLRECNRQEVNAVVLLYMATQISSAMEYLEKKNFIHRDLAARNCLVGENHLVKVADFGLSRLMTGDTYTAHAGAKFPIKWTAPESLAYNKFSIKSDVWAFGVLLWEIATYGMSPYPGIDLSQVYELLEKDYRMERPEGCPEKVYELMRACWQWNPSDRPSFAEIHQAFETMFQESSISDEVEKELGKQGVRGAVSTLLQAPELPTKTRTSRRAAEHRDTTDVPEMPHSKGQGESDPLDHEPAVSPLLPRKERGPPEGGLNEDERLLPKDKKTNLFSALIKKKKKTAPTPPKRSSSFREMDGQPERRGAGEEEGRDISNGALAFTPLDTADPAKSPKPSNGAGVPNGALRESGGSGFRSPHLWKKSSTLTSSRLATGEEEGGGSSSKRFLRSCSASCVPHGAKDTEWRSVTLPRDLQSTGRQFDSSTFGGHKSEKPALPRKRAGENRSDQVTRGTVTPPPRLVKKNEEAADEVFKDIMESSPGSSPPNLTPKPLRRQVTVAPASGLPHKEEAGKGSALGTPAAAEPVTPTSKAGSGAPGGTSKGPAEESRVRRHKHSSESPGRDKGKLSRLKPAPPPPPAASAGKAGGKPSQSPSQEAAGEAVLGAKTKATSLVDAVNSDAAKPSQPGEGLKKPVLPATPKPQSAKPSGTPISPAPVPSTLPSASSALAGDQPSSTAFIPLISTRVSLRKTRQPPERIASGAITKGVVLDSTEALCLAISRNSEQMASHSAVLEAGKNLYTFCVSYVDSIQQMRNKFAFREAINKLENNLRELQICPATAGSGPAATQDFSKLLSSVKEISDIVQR
structure (smiles),measurement,value
Cc1ccc(NC(=O)c2ccc(CN3CC[C@H](N(C)C)C3)c(C(F)(F)F)c2)cc1Nc1nccc(-c2cncnc2)n1 [bafetinib],global conformation of Abl-1's SH3-SH2-CD module,promote an open global conformation
